Measured values taken from patent US20100324081A1, “PREVENTIVE, INHIBITOR OR REMEDY FOR CEREBRAL ANEURYSM COMPRISING IBUDILAST AS AN ACTIVE INGREDIENT” (Kyorin Pharmaceutical Co., Ltd., priority 2007, published 2010).

Legend:
[1] = tested on: female rat animal model used for generating cerebral aneurysm; conditions: hormone substitution therapy, estrogen-deficient female rat model; Non-Patent Document 7; cited from earlier work
[2] = tested on: rat cerebral aneurysm model; test: Cerebral aneurysm formation-inhibitory effect on rat cerebral aneurysm model (vascular corrosion cast staging); format: in vivo, Sprague-Dawley rats; conditions: for Analysis χ^2 Test (P vs control group) / Number of cases at Stage 1 (irregularity of vascular endothelia at the branched portion) / Number of cases at Stage 2 (slight outward projection) / Number of cases at Stage 0 (no irregularity, no outward projection): 12 weeks, 15 cases
Procedure: Cerebral aneurysm models of rats were prepared, Ibudilast was administered to these animals at a dose of […] through the oral route.
In this experiment, 7-week-old Sprague-Dawley rats were used and the posterior nenal arteries at both sides of test animal were ligated and the right side common carotid artery of each test animal was likewise ligated (the preparation of a cerebral aneurysm model of rat: see Non-Patent Document 7 specified above). After one week from the foregoing treatments, the administration of a 1% physiological saline was initiated. Then, the ovaries of each test animal on the both sides were excised after 4 weeks from the initial operation. Starting from the day subsequent to the excision, a 5% gum Arabic solution (control group) and Ibudilast were orally administered to these test animals through the use of an oral probe (sound).
The numbers of cases examined herein were as follows:
Control Group (the animal group administered at a dose of 0 mg/kg/day): 20 cases;
Ibudilast (30 mg/kg/day)-Administered Group: 15 cases; and
Ibudilast (60 mg/kg/day)-Administered Group: 15 cases.
After 12 weeks from the initiation of the administration, the rats were sacrificed, and a resin (curable resin: Baston No. 17 Plastic (manufactured and sold by Polyscience Inc.)) was injected into the blood vessels of the animals to thus form a vascular corrosion cast. Then, each branched portion of the left anterior cerebral artery-olfactory artery present in the vascular corrosion cast was examined using an electron microscope. The evaluation of the results obtained was carried out under the blind conditions to thus estimate the progress of the formation of any cerebral aneurysm according to the following criteria:
Evaluation Criteria of Vascular Corrosion Cast:
Stage 0: There was not observed any […] irregularity and any outward projection;
Stage 1: There was observed irregularity of vascular endothelia at the branched portion;
Stage 2: There was observed a slight and outward projection; and
Stage 3: There was observed a substantial and outward projection or a projection which reaches even to the apex of the branched portion.

SMILES | Effect on cerebral aneurysm formation (in words) [1] | Analysis χ^2 Test (P vs control group) ([2]; Ibudilast 30 mg/kg/day oral) | Number of cases at Stage 1 (irregularity of vascular endothelia at the branched portion) ([2]; Ibudilast 30 mg/kg/day oral) | Number of cases at Stage 2 (slight outward projection) ([2]; Ibudilast 30 mg/kg/day oral) | Number of cases at Stage 0 (no irregularity, no outward projection) ([2]; Ibudilast 30 mg/kg/day oral, vascular corrosion cast, left anterior cerebral artery-olfactory artery branch) | Analysis χ^2 Test (P vs control group) ([2]; Ibudilast 60 mg/kg/day oral) | Number of cases at Stage 0 (no irregularity, no outward projection) ([2]; Ibudilast 60 mg/kg/day oral) | Number of cases at Stage 1 (irregularity of vascular endothelia at the branched portion) ([2]; Ibudilast 60 mg/kg/day oral) | Number of cases at Stage 2 (slight outward projection) ([2]; Ibudilast 60 mg/kg/day oral) | Effect on cerebral aneurysm formation (overall, in words) ([2]; cerebral aneurysm model of rat, oral administration)
C[C@]12CC[C@@H]3c4ccc(O)cc4CC[C@H]3[C@@H]1CC[C@@H]2O [17β-estradiol] | the formation of any cerebral aneurysm is suppressed | – | – | – | – | – | – | – | – | –
CC(C)C(=O)c1c(C(C)C)nn2ccccc12 [Ibudilast] | – | P < 0.005 | 7 | 3 | 4 | P < 0.005 | 4 | 6 | 5 | excellent effect of cerebral aneurysm formation-preventive or suppression
